Measurements: PubChem BioAssay (NCI)
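GI50: concentration for 50% inhibition of growth. TGI is the concentration that stops growth completely.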

Key:
Test in all cases: NCI anticancer screen, dose series, 384-well format
HCT-116 colon = system: HCT-116 colon
NCI-H226 lung = system: NCI-H226 lung
KM12 colon = system: KM12 colon
HCT-15 colon = system: HCT-15 colon
ACHN renal = system: ACHN renal
TK-10 renal = system: TK-10 renal
SK-OV-3 ovarian = system: SK-OV-3 ovarian
K-562 leukemia = system: K-562 leukemia
BT-549 breast = system: BT-549 breast
HOP-62 NSCLC = system: HOP-62 NSCLC
SNB-75 CNS = system: SNB-75 CNS
CAKI-1 renal = system: CAKI-1 renal
MDA-MB-435 melanoma = system: MDA-MB-435 melanoma

Row | SMILES | GI50 (HCT-116 colon) | TGI (HCT-116 colon) | GI50 (NCI-H226 lung) | TGI (NCI-H226 lung) | GI50 (KM12 colon) | TGI (KM12 colon) | GI50 (HCT-15 colon) | TGI (HCT-15 colon) | GI50 (ACHN renal) | TGI (ACHN renal) | GI50 (TK-10 renal) | TGI (TK-10 renal) | GI50 (SK-OV-3 ovarian) | TGI (SK-OV-3 ovarian) | GI50 (K-562 leukemia) | TGI (K-562 leukemia) | GI50 (BT-549 breast) | TGI (BT-549 breast) | GI50 (HOP-62 NSCLC) | TGI (HOP-62 NSCLC) | further results
1 | Cc1nc2ccc(-n3ncc(C(=O)c4cc5ccccc5[nH]4)c3N)cc2[nH]1 | 3.78 µM | 16.1 µM | 5.45 µM | 29.5 µM | 3.3 µM | 12.3 µM | 1.56 µM | 13.4 µM | 8.92 µM | 48.5 µM | 4.78 µM | 20.5 µM | 11.3 µM | 30.6 µM | 3.95 µM | 14.3 µM | 5.72 µM | 20.7 µM | 12.2 µM | 29.6 µM | GI50 (SNB-75 CNS): 2.34 µM; TGI (SNB-75 CNS): 19.8 µM; GI50 (CAKI-1 renal): 6.43 µM; TGI (CAKI-1 renal): 39.8 µM; GI50 (MDA-MB-435 melanoma): 11.2 µM; TGI (MDA-MB-435 melanoma): 42.9 µM
2 | CC(C)n1cc(-c2ccc3c(c2)N(C)CC3)c2c(NS(=O)(=O)c3ccn(C)n3)ccnc21 | > 100 µM | > 100 µM | > 96.1 µM | > 100 µM | 78 µM | > 100 µM | 90.6 µM | > 100 µM | > 100 µM | > 100 µM | > 100 µM | > 100 µM | > 52.6 µM | > 85.4 µM | 53.2 µM | > 100 µM | > 100 µM | > 100 µM | > 78.1 µM | > 100 µM | GI50 (SNB-75 CNS): > 88.1 µM; TGI (SNB-75 CNS): > 100 µM; GI50 (CAKI-1 renal): > 100 µM; TGI (CAKI-1 renal): > 100 µM; GI50 (MDA-MB-435 melanoma): > 93 µM; TGI (MDA-MB-435 melanoma): > 100 µM
